Values joined by “and” are separate entries in the source; they are usually repeats but may differ in a detail not shown here. Equal entries are not always repeated.
Experiments:
[1] = tested on: P. aeruginosa strain PA14 biofilms; assay: Square wave voltammetry of pyocyanin produced by PA14 biofilms in a microfluidic growth chamber during antibiotic exposure; format: cell-based, Pseudomonas aeruginosa
Experimental: P. aeruginosa strain PA14 and m-cherry Escherichia coli strain K12 were used for all antibiotic tests performed. Trypticase soy broth (BD 211768) was used as the nutrient source for all bacteria grown in these tests. Colistin sulfate (Adipogen AG-CN2-0065-G001) was dissolved in trypticase soy broth (TSB) at 1 g/L and used as a stock solution. When not in use, the stock solution was stored at 4° C. Polydimethylsiloxane (Ellsworth Adhesives 184 Sil. Elast. Kit 0.5 kg) was used to prepare all microfluidic devices. Disposable three electrode cells (Zensor TE100) were used for all measurements in this study. The electrochemical cells consist of carbon working and counter electrodes with a Ag/AgCl paste reference electrode. Tubing and luer lock fittings for microfluidic connections were purchased from Amazon Supply (B001GMWZM) and Value Plastic (MTLL230). To prevent bacteria from leaving the microfluidic growth chambers, Minisart RC4 0.2 micron regenerated cellulose luer lock syringe filters (17821K) were attached to the inlets and outlets of the devices via 19 gauge luer lock syringes (NE192PL-25). A syringe pump (Harvard Apparatus Fusion 200 211097) was used to control the flow rate of growth media and antibiotic through the microfluidic chamber. Electrochemical measurements were made using a multipotentiostat (CHI 1040C A2728).
Polydimethylsiloxane (PDMS) wells were fabricated from 9 mm×9 mm tape molds made on glass slides (3M Scotch Tape, tape thickness ≈50 μm) using a standard method. […] Inlets and outlets in the wells were drilled and the resulting microfluidic devices were fabricated by irreversibly bonding PDMS to the disposable electrochemical cells using air plasma (Anatech SP-100, 5-7 s at 100 W). The microfluidic channels were filled with trypticase soy broth (TSB) at a flow rate of 10 μL/min. To facilitate complete filling of the chamber (removal of air bubbles), an empty syringe was attached to the outlet. By pulling and releasing vacuum on the outlet, TSB was pulled through the chamber displacing any air bubbles.
For antibiotic testing, cultures of PA14 and E. coli were grown over night in 3 mL of TSB (concentration approximately […]). After overnight growth, samples were centrifuged for 3 min at 10,000 rpm. The supernatant was discarded and the cultures were reconstituted in 3 mL of fresh TSB. After removing the inlet syringe filter, approximately 24 μL of reconstituted cell culture was loaded into the growth chamber at a flow rate of 10 μL/min. […] After overnight growth, flow at 0.1 μL/min was initiated with either TSB or colistin sulfate in TSB and the electrochemical response was monitored. […]

[2] = tested on: PA14; assay: Regrowth on TSB agar plates of cells taken from PDMS chambers after colistin sulfate exposure; format: cell-based, Pseudomonas aeruginosa; conditions: TSB plate
Experimental: FIG. 12 illustrates PA14 exposed to 100 mg/L and 4 mg/L colistin sulfate for 20 hours within PDMS chambers then spotted onto TSB plates. Photographs of a plate after incubation at 37° C. for A) 4.3 h, B) 6.5 h, and C) 74.3 h (removed from the incubator after 24 h to avoid drying and grown at room temperature (≈23° C.)). Arrows highlight the locations of the first observed PA14 colonies. A vertical line divides the areas on the plate where PA14 exposed to 100 mg/L (left) and 4 mg/L (right) colistin sulfate were spotted.
FIG. 22 illustrates PA14 streaked onto TSB after exposure to 100 mg/L and 4 mg/L colistin for 20 hours within PDMS flow chambers. Photographs show the plate after A) 4.33 h, B) 6.5 h, and C) 74.3 h of incubation. The plate was incubated at 37° C. for the first 24 hours, then grown at room temperature for the remaining time to prevent the agar from drying out.
The qualitative results of the live cell stain are consistent with the culture plate experiments. The live cell concentration in biofilms exposed to 100 mg/L colistin sulfate (FIG. 11B), however, is higher than expected when compared to the reduced rate of colony formation on agar plates (FIG. 12).
Regarding FIG. 22, after exposure to colistin sulpahte at 4 and 100 mg/L flowing at 100 nL/min, the PDMS chambers were peeled from the disposable electrodes. […] Samples were incubated at 37° C., and monitored for growth. […]

[3] = tested on: P. aeruginosa; conditions: literature value, cited from earlier work
[4] = tested on: PA14; assay: Growth of liquid PA14 cultures plated on cetrimide agar plates containing colistin sulfate; format: cell-based, Pseudomonas aeruginosa
Experimental: FIG. 21 illustrates images of PA14 colonies after 20 hours of growth at 37° C. on cetrimide agar plates mixed with different concentrations of colistin sulfate.
Regarding FIG. 21, liquid cultures of PA14, grown over night in 3 mL of TSB, were plated directly onto cetrimide agar plates containing 0, 4, and 100 mg/L of colistin sulfate. These plates were incubated overnight at 37° C. The plates were then inspected for bacterial growth (FIG. 21).

[5] = tested on: PA14 cells; assay: Live cell counts (LIVE/DEAD stain, haemocytometer) of biofilm removed from the device after antibiotic exposure; format: cell-based, Pseudomonas aeruginosa; conditions: PA14 biofilm exposed to 100 mg/L colistin sulfate, compared to 0 and 4 mg/L
Experimental: Cell viability after exposure to colistin sulfate was assessed using a LIVE/DEAD staining kit (EMD Chemicals Millipore 50-231-0606). Stains were prepared per manufacturer's operating procedure. After staining, 10 μL of sample was injected into an INCYTO C-chip disposable hemocytometer (DHC-N01). Cells were imaged using a fluorescence microscope, and the number of PA14 cells that were alive after exposure was determined using IMAGE J (ImageJ, U.S. National Institutes of Health, Bethesda, Md., USA, http://imagej.nih.gov/ij/).
The number of living cells measured after exposure to three different concentrations of colistin sulfate were compared (FIG. 11B). After the biofilm was exposed to antibiotic in the device, the PDMS chambers were peeled off and 100 μL of fresh TSB was spotted on the biofilm and pipetted vigorously to remove material from the surface of the electrode. Removed samples were used to measure live cell counts, performed with Millipore 3P Live/Dead Stain, using a haemocytometer. […] A concentration of approximately 4×10^5 live cells/mL was measured in the biofilms not exposed to colistin sulfate. […] A statistically significant reduction in the number of live PA14 cells was measured for samples exposed to 100 mg/L colistin sulfate compared to cells exposed to 0 and 4 mg/L colistin sulfate. […]

Row | Molecule | effect on PYO production (SWV response) ([1]; PA14 exposed to 100 mg/L ampicillin in TSB under flow) | average response (peak current, PYO production) compared to biofilms exposed to only TSB ([1]; PA14 biofilm exposed to 4 mg/L colistin sulfate, ANOVA) | average percent decrease in the maximum peak current at the end of testing ([1]; PA14 biofilm exposed to 100 mg/L colistin sulfate in TSB, flow 100 nL/min, compared to control cells) | average peak current compared against the control (ANOVA) ([1]; PA14 exposed to 16 and 100 mg/L colistin sulfate, P<0.05) | incubation time after which growth (visible colonies) was observed ([2]; cells exposed to 4 mg/L colistin sulfate for 20 hours in chambers, 37° C.) | growth after 6.5 h of incubation ([2]; cells exposed to 100 mg/L colistin sulfate for 20 hours in chambers) | reported MIC (High MIC) ([3]; higher MIC) | reported MIC (low MIC) ([3]; lower MIC) | bacterial growth on plate after overnight incubation at 37° C. ([4]; cetrimide agar containing 4 mg/L colistin sulfate) | bacterial growth on plate after overnight incubation at 37° C. ([4]; cetrimide agar containing 100 mg/L colistin sulfate) | reduction in the number of living cells [5]
1 | CC1(C)S[C@@H]2[C@H](NC(=O)[C@H](N)c3ccccc3)C(=O)N2[C@H]1C(=O)O [ampicillin] | no effect on PYO production |  |  |  |  |  |  |  |  |  | 
2 | colistin sulfate |  | no significant difference | ~82% | significantly lower | 4.3 h and 4 h | No growth was observed | 16 µg/mL | 4 µg/mL | showed growth | showed no colony formation | ~2 ×

— patent US10316348B2, “Diagnostic system and process for rapid bacterial infection diagnosis” (priority 2014, dated 2019)
